{"source": "paper PMC12019328", "about": "“Discovery of an ApoE4-targeted small-molecule SirT1 enhancer for the treatment of Alzheimer’s disease” (Scientific Reports, 2025)", "key": {"[1]": {"tested_on": "SirT1 mRNA in N2a-E4 cells", "assay": "SirT1 mRNA in N2a-E4 cells (qRT-PCR)", "assay_type": "cell-based, murine", "details": "5 µM, 24 h, normalized to GAPDH and DMSO", "experimental": "Relative SirT1 mRNA and protein enhancement by racemate DDL-214 and enantiomers DDL-218 and − 219 was determined in murine neuroblastoma cells stably transfected with ApoE4 (N2a-E4)[25]. All test compounds in DMSO were prepared at 2x the final concentration in DMEM supplemented with 10% fetal bovine serum (FBS) and 1% pen-strep (PS) and 50 µL of each loaded into individual wells of a 96-well plate. Previously cultured N2a-E4 were then trypsinized, harvested, centrifuged, and counted; then 50 µL of cell suspension adjusted to 400 cells/µL was added to each well. The plate was then incubated at 37 °C, 5% CO2 for 48 h. Cells were treated with DDL-214, DDL-218, or DDL-219 at 5 µM final then incubated for 24 h. […]\n(§1) Total RNA was isolated from cells or brain tissue (Qiagen RNEasy kit). Total RNA (0.5–1.0 µg) mRNA was then converted to cDNA (SuperScript™ III First-Strand Synthesis SuperMix kit; Thermo Fisher), and gene mRNA levels were measured using a gene-specific qRT-PCR Taqman assays (Thermo Fisher). Gene mRNA levels were normalized to GAPDH mRNA levels measured either in the same cDNA sample or in the same qPCR reaction using multiplexing of gene-of-interest/VIC and GAPDH/FAM, normalized by the delta-delta-Ct method."}, "Kinetic solubility": {"assay": "Kinetic solubility", "assay_type": "physicochemical", "details": "aqueous buffer, kinetic from dmso stock, PBS pH 7.4, 37°C", "experimental": "supernatants were transferred to new tubes and lyophilized. Samples were reconstituted in 100 µL of 50/50/0.1 (Water/Acetonitrile/Formic Acid) prior to analysis via liquid chromatography-tandem mass spectrometry (LC-MS/MS).\nNormalized chromatographic peak areas was plotted at each time point and the half-life (T1/2) of compound in liver microsomes was determined by using the trendline equation to calculate the time at which compound abundance was 50% of that at timepoint 0 (T0).\nKinetic solubility was assessed by separately diluting a test compound solution (10 mM, 100% DMSO) into the aqueous buffer (PBS pH 7.4) and DMSO at 100 μM, 100 μL total volume.\nThe solutions were then incubated at 37°C for 90 min and centrifuged (16000xg, 5 min). An aliquot (50 µL) of each supernatant was analyzed by LC-MS/MS.\nFive standard concentrations (100, 10, 1, 0.1, and 0, DMSO) in duplicates were incubated at 37°C for 90 min and centrifuged (16000xg, 5 min). Aliquots (50 µL) of supernatant were analyzed by LC-MS/MS to create the standard curve.\nTable S2. DDL-218 Physiochemical Properties\nKinetic solubility (μM) 64.4\nBrain Tissue Binding [fu,bound (%)] 43 […]"}, "[2]": {"tested_on": "SirT1 mRNA in Kelly cells", "assay": "SirT1 mRNA in Kelly neuroblastoma cells", "assay_type": "cell-based, human", "details": "5 µM, 24 h, vs DMSO control", "experimental": "(§2) Human neuroblastoma ‘Kelly’ cells (genotype APOE3/APOE4) were plated in 96-well plates at 50K cells per well and were grown overnight in RPMI 1640 supplemented with 2 mM Glutamine, 10% FBS and 1% Pen-Strep. Cells were treated with 5 µM DDL-214, -218, or -219; or DMSO vehicle (n = 8 per compound). Twenty-four hours later, medium was removed, cells washed and lysed as described above for N2a-E4 cells.\nas §1"}, "[3]": {"tested_on": "PRMT5 mRNA in Kelly cells", "assay": "PRMT5 mRNA in Kelly neuroblastoma cells", "assay_type": "cell-based, human", "details": "5 µM, 24 h, vs DMSO", "experimental": "as §2, §1"}, "[4]": {"tested_on": "PPP2r5e mRNA in Kelly cells", "assay": "PPP2r5e mRNA in Kelly neuroblastoma cells", "assay_type": "cell-based, human", "details": "5 µM, 24 h, vs DMSO", "experimental": "as §2, §1"}, "SirT1 mRNA": {"tested_on": "SirT1 mRNA", "assay": "Hippocampal SirT1 mRNA in ApoE4-TR:5xFAD mice", "assay_type": "in vivo", "details": "20 mg/Kg BID, 56 days, vs vehicle", "experimental": "The active (-) enantiomer, DDL-218, underwent efficacy testing in ApoE4-TR:5xFAD mice[27] that were 6-7.5 months old at the start of treatment. ApoE4-TR:5xFAD male and female mice received either 20 mg/Kg DDL-218 BID (~ 8- to10-hour interval; total daily dose of 40 mkd) on weekdays and a single 40 mg/Kg dose on weekends (n = 12) or vehicle-only (n = 11); 8 C57BL/6 mice received vehicle-only as behavioral controls. Dosing was by the oral route and by oral feeding using a pipette as previously described, not gavage, as it is safer for repeated oral dosing than gavage. The dose of 20 mg/kg BID (40 mkd) was selected based on findings from PK analysis and was the highest feasible in the formulation used for oral feeding (compound is first solubilized in water, then mixed strawberry syrup diluted in water, for a final vehicle that is 25% syrup and 75% water). […]\nas §1"}, "[5]": {"assay": "Observation of mice behavior in the PK study", "assay_type": "in vivo", "details": "oral gavage 10 or 30 mg/Kg", "experimental": "C57BL/6J mice were administered DDL-214, -218, or -219 (n = 3 per compound) by oral gavage at a dose of 30 mg/kg in a volume of 5 mL/Kg based on mouse weight. One hour later, mice were euthanized by pentobarbital over-anesthesia and trans-cardial collection of blood for isolation of plasma by centrifugation at 10,000 x g for 10 min at 4 °C. Brain tissue was collected for analysis, frozen on dry ice and stored at -80 °C before analysis."}}, "note": "Entries after “also recorded” stand apart in the source; their conditions may differ."}
{"compound": "CC(N)C(=O)OC(C)(C)Cc1ccncc1", "note": "(stereo not shown) [DDL-218]", "values": [{"measurement": "SirT1 mRNA", "setting": "[1]", "result": "greatest increase; also recorded: significantly increased SirT1 mRNA"}, {"measurement": "solubility kinetic at 90 min", "setting": "Kinetic solubility", "result": 64.4, "unit": "µM"}, {"measurement": "SirT1 mRNA", "setting": "[2]", "result": "greatest increase; also recorded: significantly increased SirT1 mRNA"}, {"measurement": "PRMT5 expression (mRNA)", "setting": "[3]", "result": "significantly increases PRMT5 expression"}, {"measurement": "PPP2r5e mRNA", "setting": "[4]", "result": "significantly increased"}, {"measurement": "hippocampal SirT1 mRNA", "setting": "SirT1 mRNA", "result": "significantly increased"}, {"measurement": "changes in mice behavior indicative of drug-induced toxicity", "setting": "[5]", "result": "No notable changes in mice behavior"}]}
